# From US8309550B2, “Kinase inhibitors and their use as pharmaceutical agents” (Shanghai Genomics, Inc., priority 2011, dated 2012)
# Where two headings read alike, the source gives them in different places.
# Legend:
# Aurora A = target: T1, Aurora A (Homo sapiens, UniProt O14965); assay: Z'-LYTE kinase assay Aurora A; assay type: biochemical
# T1 construct: purchased Invitrogen PV3612
# T1 sequence (O14965 1-403): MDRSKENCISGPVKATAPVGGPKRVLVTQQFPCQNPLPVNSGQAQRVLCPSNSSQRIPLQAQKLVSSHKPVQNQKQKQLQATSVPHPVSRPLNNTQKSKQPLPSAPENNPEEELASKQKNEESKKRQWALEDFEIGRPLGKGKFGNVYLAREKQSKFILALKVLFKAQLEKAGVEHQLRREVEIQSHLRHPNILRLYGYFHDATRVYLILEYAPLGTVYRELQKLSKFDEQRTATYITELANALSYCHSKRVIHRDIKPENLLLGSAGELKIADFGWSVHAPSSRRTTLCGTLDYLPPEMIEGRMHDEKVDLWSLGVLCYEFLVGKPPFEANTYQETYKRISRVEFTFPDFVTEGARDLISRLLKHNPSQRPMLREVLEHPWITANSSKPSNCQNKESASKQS
# In short: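 Aurora A inhibition was measured by Z′-LYTE™. After a one-hour kinase reaction at room temperature, development buffer was added for another hour, then stop buffer. A VICTOR-3 reader recorded the 445 nm/520 nm emission ratio with excitation at 400 nm. Phosphorylation was derived from this ratio, and IC50 was obtained by sigmoid fitting in Origin 6.0.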
# H460-luc = assay: 72 h MTT cytotoxicity assay H460-luc; assay type: cell-based; conditions: Homo sapiens
# Source text: MIT cytotoxicity assay. The compounds of the invention were subjected to a standard cellular proliferation assay using human cell lines. HeLa cells (Human cervix adenocarcinoma cell line, ATCC NO, CCL-2); A549 cells (Human lung carcinoma cells line, ATCC NO, CCL-185); U2OS cells (Human osteosarcoma cell line, ATCC NO, HTB-96); Eca-109 cells (Human esophageal carcinoma cell line); HepG2 (Human hepatocellular liver carcinoma cell line, ATCC NO, HB-8065); K562 cells (Human chronic myelogenous leukemia cell line, ATCC NO, CCL-243); SK-MEL-28 (Human malignant melanoma cell line, ATCC NO, HTB-72); Molt-4 (Human acute lymphoblastic leukemia cell line, ATCC NO, CRL-1582); H460 (Human large cell lung cancer cell line, ATCC NO, HTB-177); MDA-MB-231 (Human breast adenocarcinoma cell line, ATCC NO, HTB-26); MCF7 (Human breast adenocarcinoma cell line, ATCC NO, HTB-22); ACHN (Human renal cell adenocarcinoma cell line, ATCC NO, CRL-1611); PC-3M (Human prostate adenocarcinoma cell line, ATCC NO CRL-1435); HL60 (Human acute promyelocytic leukemia cell line, ATCC NO, CCL-240); THP-1 (Human acute monocytic leukemia, ATCC NO, TIB-202); Jurkat (Human acute T cell leukemia cell line, ATCC NO, CRL-2063); HCT-116 (Human colorectal carcinoma cell line, ATCC NO, CCL-247); HT-29 (Human colorectal adenocarcinoma cell line, ATCC NO, HTB-38™); WI-38 (Human normal lung cell line, ATCC NO, CCL-75); MRC-5 (Human normal lung cell line, ATCC NO, CCL-171).
# HepG2, MDA-MB-231, WI-38 and MRC-5 cells were obtained from Shanghai Institute of Cell Biology, Chinese Academy of Sciences (Shanghai 200031, China). A549, HeLa, K562, MCF7, ACHN, H460, U2OS, Eca-109, MCF7, HL60, THP-1, Jurkat, HCT-116, HT-29, PC-3M, SK-MEL-28, Molt-4, H460 and […] cells were purchased from ATCC (American Type Culture Collection, USA).
# Standard 72 h MTT (thiazolye blue; 3-[4,5-dimethylthiazol-2-yl]-2,5-diphenyltetrazolium bromide) assays were performed. Briefly, the cell lines used in this study were recovered and cultured according to the conditions recommended. 4000 cells per well were seeded into 96-well plates according to doubling time and incubated overnight at 37° C. Compounds were prepared in DMSO and a ½ dilution series in 100 μl cell culture media, added to cells (in duplicates) with the final DMSO concentration of 0.025%, and incubated for 72 hrs at 37° C. MTT solution (5 mg/ml) was added at 10 μl per well and incubated in the dark at 37° C. for 4 hr. Culture medium and MTT solution was removed. MTT dye was solubilised with 100 μl per well of DMSO with agitation. Absorbance was read at 562 nm and data analyzed using Sigmoid curve-fitting software Origin 6.0 (MicroCal, LLC, USA) to determine IC50 value.
# Aurora B = Aurora B (Homo sapiens, UniProt Q96GD4); assay: Kinase assay Aurora B (Table I); assay type: biochemical
# Chain of Aurora B (Q96GD4 whole entry): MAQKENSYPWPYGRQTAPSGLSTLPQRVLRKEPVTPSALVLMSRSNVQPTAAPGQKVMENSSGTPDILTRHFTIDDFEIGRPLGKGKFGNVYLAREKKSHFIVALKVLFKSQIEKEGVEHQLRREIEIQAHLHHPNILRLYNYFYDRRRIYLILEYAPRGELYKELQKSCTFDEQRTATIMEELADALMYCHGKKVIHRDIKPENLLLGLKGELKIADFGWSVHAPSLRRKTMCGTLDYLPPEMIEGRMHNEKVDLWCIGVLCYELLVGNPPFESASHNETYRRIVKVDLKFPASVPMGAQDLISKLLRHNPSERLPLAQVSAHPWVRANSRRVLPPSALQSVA
# CDK1/cyclinB = target: T2, CDK1/cyclinB (Homo sapiens, UniProt P06493); assay: Z'-LYTE kinase assay CDK1/cyclinB; assay type: biochemical
# T2 construct: purchased Invitrogen PV3292
# T2 sequence (P06493 whole entry): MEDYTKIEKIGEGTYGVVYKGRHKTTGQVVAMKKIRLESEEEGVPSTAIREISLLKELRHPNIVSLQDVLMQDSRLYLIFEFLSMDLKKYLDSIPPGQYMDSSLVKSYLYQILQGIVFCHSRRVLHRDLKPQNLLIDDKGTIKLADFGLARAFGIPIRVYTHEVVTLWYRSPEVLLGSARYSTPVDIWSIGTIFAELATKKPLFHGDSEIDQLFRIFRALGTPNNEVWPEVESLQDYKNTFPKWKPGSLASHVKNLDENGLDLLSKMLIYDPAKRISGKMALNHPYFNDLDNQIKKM
# T2 sequence (P14635 whole entry partner): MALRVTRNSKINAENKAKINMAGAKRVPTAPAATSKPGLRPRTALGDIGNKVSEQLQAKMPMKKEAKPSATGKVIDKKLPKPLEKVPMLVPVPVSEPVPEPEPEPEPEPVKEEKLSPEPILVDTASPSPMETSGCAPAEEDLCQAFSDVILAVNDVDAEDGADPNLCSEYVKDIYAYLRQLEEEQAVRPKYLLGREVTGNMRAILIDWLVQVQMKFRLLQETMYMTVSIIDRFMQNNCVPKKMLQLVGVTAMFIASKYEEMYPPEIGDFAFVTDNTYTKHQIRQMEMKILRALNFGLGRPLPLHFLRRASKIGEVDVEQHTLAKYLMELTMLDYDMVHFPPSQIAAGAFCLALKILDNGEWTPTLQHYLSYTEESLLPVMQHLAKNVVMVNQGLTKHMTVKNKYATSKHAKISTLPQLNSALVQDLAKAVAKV
# In short: (§1)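 Recombinant human kinases were run in a Z′-LYTE FRET assay. CDK1/cyclinB and CDK5/p35 were each used at 0.8 ng/reaction with Ser/Thr 12 peptide. Reactions ran 1 h at room temperature in HEPES pH 7.5 with 20 μM ATP, followed by 1 h development. IC50 came from sigmoid fits.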
# CDK5/p35 = target: T3, CDK5/p35 (Homo sapiens, UniProt Q00535); assay: Z'-LYTE kinase assay CDK5/p35; assay type: biochemical
# T3 construct: purchased Invitrogen PV3000
# T3 sequence (Q00535 whole entry): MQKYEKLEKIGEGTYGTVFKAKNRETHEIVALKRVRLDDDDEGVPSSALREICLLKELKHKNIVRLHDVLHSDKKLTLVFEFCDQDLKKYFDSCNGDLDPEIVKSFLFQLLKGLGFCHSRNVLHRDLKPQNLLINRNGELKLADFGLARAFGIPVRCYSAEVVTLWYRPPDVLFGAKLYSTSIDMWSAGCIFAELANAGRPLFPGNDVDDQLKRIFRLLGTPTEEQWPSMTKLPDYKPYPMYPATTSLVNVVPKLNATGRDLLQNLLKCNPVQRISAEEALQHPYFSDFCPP
# T3 sequence (Q15078 whole entry partner): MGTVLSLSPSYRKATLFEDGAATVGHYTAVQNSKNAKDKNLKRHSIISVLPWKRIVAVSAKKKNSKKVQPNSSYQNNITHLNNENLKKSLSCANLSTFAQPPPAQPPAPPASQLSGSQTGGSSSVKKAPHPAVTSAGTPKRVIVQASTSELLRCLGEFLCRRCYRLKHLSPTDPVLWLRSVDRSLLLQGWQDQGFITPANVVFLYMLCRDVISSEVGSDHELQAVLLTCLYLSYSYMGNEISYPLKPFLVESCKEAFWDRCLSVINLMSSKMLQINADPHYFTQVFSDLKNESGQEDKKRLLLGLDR
# In short: as §1
# CDK2/cyclinA = target: T4, CDK2/cyclinA (Homo sapiens, UniProt P24941); assay: Z'-LYTE kinase assay CDK2/cyclinA; assay type: biochemical
# T4 construct: purchased Invitrogen PV3267
# In short: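 This Z′-LYTE™ fluorescence assay measured inhibition of human CDK2/cyclinA. After the 1 hr kinase reaction, development buffer was added for another hour at room temperature, then stop buffer. The 445 nm/520 nm emission ratio, excited at 400 nm, was read on a VICTOR-3 Multilabel Reader and converted to phosphorylation. Compounds were prepared as 10 mM DMSO stocks.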
# [1] = Table III, read-out: Target biochemical activity IC50 Aurora A
# [2] = H460, Table III, read-out: Cellular effect in mammalian cells IC50 H460
# [3] = Table III, read-out: Target biochemical activity IC50 Aurora B
# [4] = Table III, read-out: Target biochemical activity IC50 CDK1
# [5] = Table III, read-out: Target biochemical activity IC50 CDK5
# [6] = Table III, read-out: Target biochemical activity IC50 CDK2
# [7] = read-out: Kinase inhibition, IC50 Aurora A
# [8] = NCI-H460-Luc, H460-luc, 72 hrs, read-out: Cytotoxicity, MTT 72 hrs, IC50 H460-luc
# [9] = read-out: Kinase inhibition, IC50 Aurora B
# [10] = read-out: Kinase inhibition, IC50 CDK1B
# [11] = read-out: Kinase inhibition, IC50 CDK5/p35
# [12] = read-out: Kinase inhibition, IC50 CDK2A
Compound,IC50 (Aurora A; [1]),IC50 (H460-luc; [2]),IC50 (Aurora B; [3]),IC50 (CDK1/cyclinB; [4]),IC50 (CDK5/p35; [5]),IC50 (CDK2/cyclinA; [6]),IC50 (Aurora A; [7]),IC50 (H460-luc; [8]),IC50 (Aurora B; [9]),IC50 (CDK1/cyclinB; [10]),IC50 (CDK5/p35; [11]),IC50 (CDK2/cyclinA; [12])
CCCn1cc(-c2ccnc(Nc3cccc(S(N)(=O)=O)c3)n2)c2nc(Cl)cc(C)c21 [SG53],98 nM,2000 nM,190 nM,6840 nM,> 10000 nM,> 10000 nM,,,,,,
"CCCn1cc(-c2ccnc(Nc3ccc(C)c(S(=O)(=O)N4CCOCC4)c3)n2)c2ccncc21 [Compound 102, N-(4-Methyl-3-(morpholinosulfonyl)phenyl)-4-(1-propyl-1H-pyrrolo[2,3-c]pyridin-3-yl)pyrimidin-2-amine]",,,,,,,1650 nM,220 nM,3420 nM,70 nM,25 nM,30 nM
"CCCn1cc(-c2ccnc(Nc3ccc(O)cc3)n2)c2cccnc21 [Compound 15, 4-(4-(1-Propyl-1H-pyrrolo[2,3-b]pyridin-3-yl)pyrimidin-2-ylamino)phenol]",,,,,,,210 nM,4980 nM,670 nM,1670 nM,2240 nM,28 nM
CCCn1cc(-c2ccnc(Nc3ccc(C)c(S(=O)(=O)N4CCOCC4)c3)n2)c2ccncc21 [SG52],1650 nM,220 nM,1000 nM,70 nM,25 nM,30 nM,,,,,,
"CCCn1cc(-c2ccnc(Nc3ccc(C)c(S(=O)(=O)N4CCOCC4)c3)n2)c2cccnc21 [Compound 24, N-(4-Methyl-3-(morpholinosulfonyl)phenyl)-4-(1-propyl-1H-pyrrolo[2,3-b]pyridin-3-yl)pyrimidin-2-amine]",,,,,,,9440 nM,1410 nM,≥ 10000 nM,5190 nM,8900 nM,4580 nM
"CCCn1cc(-c2ccnc(Nc3cccc(S(N)(=O)=O)c3)n2)c2cccnc21 [Compound 22, 3-(4-(1-Propyl-1H-pyrrolo[2,3-b]pyridin-3-yl)pyrimidin-2-ylamino)benzenesulfonamide]",,,,,,,8 nM,1110 nM,3600 nM,450 nM,400 nM,190 nM
"CCCn1cc(-c2ccnc(Nc3ccc(S(N)(=O)=O)cc3)n2)c2ccncc21 [Compound 112, 4-(4-(1-Propyl-1H-pyrrolo[2,3-c]pyridin-3-yl)pyrimidin-2-ylamino)benzenesulfonamide]",,,,,,,820 nM,20 nM,1.6 nM,0.4 nM,1.3 nM,10 nM
"CCCn1cc(-c2ccnc(Nc3cccc(S(N)(=O)=O)c3)n2)c2ccnc(Cl)c21 [Compound 96, 3-(4-(7-chloro-1-propyl-1H-pyrrolo[2,3-c]pyridin-3-yl)pyrimidin-2-ylamino)benzenesulfonamide]",,,,,,,800 nM,260 nM,> 10000 nM,< 0.1 nM,20 nM,< 0.1 nM
CCCn1cc(-c2ccnc(Nc3ccc(S(N)(=O)=O)cc3)n2)c2nc(Cl)cc(C)c21 [SG54],620 nM,1030 nM,320 nM,> 10000 nM,> 10000 nM,1670 nM,,,,,,
"CCn1cc(-c2ccnc(Nc3cccc(S(N)(=O)=O)c3)n2)c2cccnc21 [Compound 18, 3-(4-(1-Ethyl-1H-pyrrolo[2,3-b]pyridin-3-yl)pyrimidin-2-ylamino)benzenesulfonamide]",30 nM,1270 nM,700 nM,624 nM,271 nM,3 nM,30 nM,1270 nM,700 nM,624 nM,271 nM,3 nM
"CCCn1cc(-c2ccnc(Nc3cccc(O)c3)n2)c2cccnc21 [Compound 16, 3-(4-(1-Propyl-1H-pyrrolo[2,3-b]pyridin-3-yl)pyrimidin-2-ylamino)phenol]",,,,,,,> 10000 nM,4060 nM,1250 nM,1360 nM,2320 nM,6 nM
"CCCn1cc(-c2ccnc(Nc3cccc(S(N)(=O)=O)c3)n2)c2nc(Cl)cc(C)c21 [Compound 42, 3-(4-(5-Chloro-7-methyl-1-propyl-1H-pyrrolo[3,2-b]pyridin-3-yl)pyrimidin-2-ylamino)benzenesulfonamide]",,,,,,,98 nM,2000 nM,190 nM,6840 nM,> 10000 nM,> 10000 nM
"CCn1cc(-c2ccnc(Nc3cccc(C#N)c3)n2)c2cccnc21 [Compound 20, 3-(4-(1-Ethyl-1H-pyrrolo[2,3-b]pyridin-3-yl)pyrimidin-2-ylamino)benzonitrile]",,,,,,,6990 nM,> 10000 nM,> 10000 nM,7010 nM,4610 nM,3480 nM
"CCCn1cc(-c2ccnc(Nc3cccc(S(N)(=O)=O)c3)n2)c2ccncc21 [Compound 111, 3-(4-(1-Propyl-1H-pyrrolo[2,3-c]pyridin-3-yl)pyrimidin-2-ylamino)benzenesulfonamide]",,,,,,,50 nM,6 nM,59 nM,0.4 nM,0.5 nM,0.5 nM
CCCn1cc(-c2ccnc(Nc3cccc(S(N)(=O)=O)c3)n2)c2ccncc21 [SG51],50 nM,< 100 nM,59 nM,0.4 nM,0.5 nM,0.5 nM,,,,,,
